Assay results: ChEMBL document CHEMBL5729087, “Pyranopyrazole and pyrazolopyridine immunomodulators for treatment of autoimmune diseases” (2022)

Tests used:
Coagulation factor XII = target: T1, Coagulation factor XII (Homo sapiens, UniProt P00748); assay: Factor XIIa (FXIIa) Inhibitory Activity: In a 96-well clear bottom plate, 80 μl of assay buffer was added to each well. Assay buffer consists of 0.5× Hank's Balanced Salt Solution (Invitrogen), buffered with 25 mM HEPES pH 7.4 (Invitrogen) and 0.5× Tris-buffered saline with Tween-20 0.05% (Santa Cruz Biotechnology). Test compounds were first dissolved in DMSO (Sigma) and then 4 μl were added to test wells containing assay buffer. Serial dilutions using an automated multi-channel pipette were used to generate a concentration range of approximately 1-100 μM. Human FXIIa (Enzyme Research Labs) was diluted in assay buffer to a final concentration of 12.5 nM. 80 μl of this enzyme solution was added to the assay wells. The enzyme/compound mixtures were incubated for 10 minutes at room temperature. Chromogenic substrate (Pefachrome XIIa; Enzyme Research Labs) was added to assay wells at a final concentration of 400 μM. The assay plate was spun for 1 minute at 1500 g and then read at 37° C. in a SpectraMax M2 plate reader (λ=405 nm). Activity was quantified as the rate of change in absorbance, which corresponds to the rate of substrate cleavage. IC50 values were determined as the concentration of inhibitor that produced 50% of the rate of change of control wells without any inhibitor. For compounds with activity <1 μM, the assay was repeated with a lower concentration range, typically from 10-1000 nM.
T1 sequence (P00748 whole entry): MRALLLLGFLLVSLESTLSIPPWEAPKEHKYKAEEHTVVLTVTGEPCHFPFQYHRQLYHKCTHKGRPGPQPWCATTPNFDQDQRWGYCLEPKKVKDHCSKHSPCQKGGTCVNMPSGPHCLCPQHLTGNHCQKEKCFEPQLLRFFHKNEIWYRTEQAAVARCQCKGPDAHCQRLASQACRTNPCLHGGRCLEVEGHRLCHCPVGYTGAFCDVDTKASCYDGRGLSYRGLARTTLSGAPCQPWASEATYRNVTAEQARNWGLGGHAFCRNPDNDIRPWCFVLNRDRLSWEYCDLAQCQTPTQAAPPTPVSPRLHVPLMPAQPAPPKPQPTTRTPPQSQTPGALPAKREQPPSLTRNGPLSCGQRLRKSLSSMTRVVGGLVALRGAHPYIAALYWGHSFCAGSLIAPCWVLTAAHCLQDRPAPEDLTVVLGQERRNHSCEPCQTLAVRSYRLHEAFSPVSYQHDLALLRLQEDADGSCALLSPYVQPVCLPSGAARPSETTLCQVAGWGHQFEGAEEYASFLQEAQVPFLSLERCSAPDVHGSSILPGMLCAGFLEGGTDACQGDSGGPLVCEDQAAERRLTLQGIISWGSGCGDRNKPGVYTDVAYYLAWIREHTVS

Prothrombin = Prothrombin (Homo sapiens, UniProt P00734); assay: Counterscreens for Selectivity: Thrombin. In a 96-well white opaque plate, 80 μl of assay buffer was added to each well. Test compounds were added, and serially diluted as above, to generate a concentration range of approximately 1-100 μM. Human alpha-thrombin (Enzyme Research Labs) was diluted in assay buffer to a final concentration of 12.5 nM. 80 μl of this enzyme solution was added to the assay wells. The enzyme/compound mixtures were incubated for 10 minutes at room temperature. Fluorogenic substrate (Boc-Val-Pro-Arg-7-amido-4-methylcoumarin; Sigma) was added to assay wells at a final concentration of 20 μM. The assay plate was spun for 1 minute at 1500 g and then read at 37° C. in a SpectraMax M2 plate reader (λex=380 nm and λem=460 nm). Activity was quantified as the rate of change in fluorescence, which corresponds to the rate of substrate cleavage. IC50 values were determined as the concentration of inhibitor that produced 50% of the rate of change of control wells without any inhibitor. For compounds with activity <1 μM, the assay was repeated with a lower concentration range, typically from 10-1000 nM.

| SMILES | IC50 (Coagulation factor XII) | IC50 (Prothrombin) |
| --- | --- | --- |
| Cc1cc2c(C(=O)n3nc4c(c3N)CCNC4)cccc2[nH]1 | 0.15 µM | > 150 µM |
| CC(C)N1CCc2c(N)nn(C(=O)C3CCNc4ccc(F)cc43)c2C1 (stereo not given) | 60 µM |  |
| CN(C)S(=O)(=O)N1CCc2c(nn(C(=O)C3CCNc4ccccc43)c2N)C1 (stereo not given) | 0.25 µM | > 75 µM |
